Active and inactive are the calls of the source. No rule for the calls is given here.
The molecules below were run against Ubiquitin carboxyl-terminal hydrolase isozyme L1 (Homo sapiens) (UniProt P09936) (assay: UCH-L1 deubiquitylase inhibitors, biochemical concentration-response, hit retest (AID 1645867)). Details: recombinant UCHL1 deubiquitinase activity assay.
Sequence of Ubiquitin carboxyl-terminal hydrolase isozyme L1 (Homo sapiens) (P09936 whole entry, looked up): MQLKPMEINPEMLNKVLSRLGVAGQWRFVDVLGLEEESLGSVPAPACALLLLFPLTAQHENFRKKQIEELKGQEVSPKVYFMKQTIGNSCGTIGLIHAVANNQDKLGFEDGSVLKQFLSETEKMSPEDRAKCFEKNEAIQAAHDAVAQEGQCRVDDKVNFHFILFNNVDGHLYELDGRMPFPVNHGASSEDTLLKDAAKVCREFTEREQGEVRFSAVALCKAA
`O=C(NC1CC1)c1ccc(OCC2CCCN(C(=O)c3ccccc3)C2)cc1` (stereo unspecified) was tested, and the IC50 was > 25 µM (inactive). Work on `COC1=C(C2=C(OC)C(=O)c3cc4c(c(O)c3C2=O)C(=O)OC(C)C4)C(=O)c2c(cc3c(c2O)C(=O)OC(C)C3)C1=O` (stereo unspecified) yielded an IC50 of 11.9 µM. `O=C(Nc1ccc(C(F)(F)F)cc1)C1CC(=O)N(c2ccc3c(c2)OCCO3)C1` (stereo unspecified) was tested, and the IC50 was > 25 µM (inactive). Work on `Cc1nc(C(=O)NC2(O)C(=O)c3ccccc3C2=O)cs1` yielded an IC50 of 20.7 µM. For `COc1ccc(CC(=O)Nc2c(NCc3ccccc3)c3ccccc3oc2=O)cc1`, the IC50 was > 25 µM (inactive). `COc1cn(CC(=O)Nc2ccc(Cl)cc2)c(CSc2ccccc2)cc1=O` was tested, and the IC50 was > 25 µM (inactive). `COc1cc(O)c2c(O)c3c(cc2c1)CC(C)OC3=O` (stereo unspecified) was tested, and the IC50 was > 25 µM (inactive). `Cc1ccccc1NC(=O)Cn1cc(S(=O)(=O)Cc2ccccc2)c2ccccc21` was tested, and the IC50 was > 25 µM (inactive). In the case of `COc1ccc(Nc2nnc(Cc3ccc(Cl)cc3)c(=O)[nH]2)cc1`, the IC50 is reported as > 25 µM (inactive). For `O=C(O)C1C(C(=O)Nc2ccccc2)C2(c3ccccc3)C(=O)C1(c1ccccc1)C(c1ccccc1)=C2c1ccccc1` (stereo unspecified), the IC50 was > 25 µM (inactive). For `CSc1ccc([C@H]2[C@@H](C(=O)O)c3ccccc3C(=O)N2Cc2ccc(F)cc2)cc1`, the IC50 was > 25 µM (inactive). For `COc1ccc(C(=O)COC(=O)c2ccccc2NS(=O)(=O)c2ccc(O)c([N+](=O)[O-])c2)cc1`, the IC50 was > 25 µM (inactive). For `COc1ccc(NC(=O)Cn2c(C)cc(=O)n3nc(-c4cccc(C)c4)nc23)cc1`, the IC50 was > 25 µM (inactive). In the case of `O=c1c2cnc(N3CCCCC3)nc2ccn1CCc1ccccc1`, the IC50 is reported as > 25 µM (inactive). With `O=C(Nc1ccc(-c2cn3ccsc3n2)cc1)c1ccc(Cl)c([N+](=O)[O-])c1` the IC50 was > 25 µM (inactive). `CCOc1ccc(-n2ccnc(SCC(=O)Nc3ccccc3Cl)c2=O)cc1` was tested, and the IC50 was > 25 µM (inactive). `Cc1ccc(-n2cc(-c3noc(C(=O)Nc4ccc(F)cc4C)n3)nn2)cc1` was tested, and the IC50 was > 25 µM (inactive). `O=C(NCC(O)c1ccc([N+](=O)[O-])cc1)c1cccc(S(=O)(=O)N2CCOCC2)c1` (stereo unspecified) was tested, and the IC50 was > 25 µM (inactive). In the case of `CC(C)c1ccc(C2CC(=O)c3cn[nH]c3C2)cc1` (stereo unspecified), the IC50 is reported as > 25 µM (inactive). `O=C(COc1ccccc1)Nc1ccc(-c2nc3cnccc3o2)c(O)c1` was tested, and the IC50 was > 25 µM (inactive). For `O=c1c(-c2nc(-c3ccncc3)no2)cccn1Cc1c(F)cccc1Cl`, the IC50 was > 25 µM (inactive). In the case of `CCOC(=O)c1ccc(Oc2sccc2[N+](=O)[O-])cc1`, the IC50 is reported as > 25 µM (inactive). For `CCC(C(=O)Nc1ncc2c(n1)CC(c1ccccc1)CC2=O)c1ccccc1` (stereo unspecified), the IC50 was > 25 µM (inactive). With `COc1ccc(Cl)cc1NC(=O)c1cc(-c2ccccn2)n[nH]1` the IC50 was > 25 µM (inactive). With `COc1ccc(NC(=O)Cn2c(=O)n(CCC(=O)NCc3ccccc3)c(=O)c3sccc32)cc1Cl` the IC50 was > 25 µM (inactive). In the case of `CSc1cccc(NC(=O)C2C3C=CC4(O3)C2C(=O)N(C2CCCCCC2)C4C(=O)NC2CCCCC2)c1` (stereo unspecified), the IC50 is reported as > 25 µM (inactive). `COc1ccc(NC(=O)Cn2cc(C(=O)c3ccc(Cl)cc3)c(=O)c3cc(F)ccc32)cc1` was tested, and the IC50 was > 25 µM (inactive). With `Cc1ccc(NC(=O)Nc2ccc(C)n(CC(=O)Nc3cccc(C)c3)c2=O)cc1` the IC50 was > 25 µM (inactive). `Cc1ccc(NCc2cc3c(-c4cccc(F)c4)nn(-c4ccccc4)c3[nH]c2=O)cc1C` gave an IC50 of 21.6 µM. In the case of `COc1cc(NC(=O)Cn2cc(C(=O)c3ccccc3)c(=O)c3cc(Cl)ccc32)cc(OC)c1`, the IC50 is reported as > 25 µM (inactive). For `O=c1oc2ccccc2cc1-c1nc(-c2ccc(Oc3ccccc3)cc2)cs1`, the IC50 was > 25 µM (inactive). With `Cc1ccc(C2CC(=O)C3=C(C2)Nc2ccccc2N(C(=O)c2ccccc2)C3c2ccccc2)cc1` (stereo unspecified) the IC50 was > 25 µM (inactive). With `Cc1cc(NC(=O)c2cc(-c3cccnc3)n[nH]2)ccc1Br` the IC50 was > 25 µM (inactive). For `CCC(C)N1CNc2c(c(=O)[nH]c(=O)n2Cc2ccco2)C1` (stereo unspecified), the IC50 was > 25 µM (inactive). For `COc1cccc(CNc2ccc(-c3nc(-c4ccccc4)no3)nn2)c1`, the IC50 was > 25 µM (inactive). For `O=C(NCCc1nc2ccccc2n1CCOc1ccccc1Cl)C1CCCCC1`, the IC50 was > 25 µM (inactive).

From PubChem BioAssay AID1645867 (Buhrlage Lab, Dana-Farber Cancer Institute and Novartis …, 2021)
